ChEMBL document CHEMBL5329205, “Development of novel quinoline-NO donor hybrids inducing human breast cancer cells apoptosis via inhibition of topoisomerase I” (Bioorg Med Chem, 2023)
Calls of active or inactive are those of the source. No cut-off for these calls is given here.

Legend:
[1] = Cytotoxicity against human MCF-10A cells assessed as cell growth inhibition measured after 48 hrs by MTT assay; assay type: toxicity, cell-based
MCF7 [2] = assay: Induction of apoptosis in human MCF7 cells assessed as early apoptotic cells at 3 uM incubated for 48 hrs by Annexin-V/PI staining based flow cytometry analysis (reference value: 0.3%); assay type: functional
MCF7 [3] = assay: Induction of apoptosis in human MCF7 cells assessed as boundary consolidation upto 3 uM incubated for 48 hrs by Hoechst-33342 staining based fluorescent microscopic analysis; assay type: functional, cell-based
MCF7 [4] = assay: Induction of apoptosis in human MCF7 cells assessed as early apoptotic cells at 1.5 uM incubated for 48 hrs by Annexin-V/PI staining based flow cytometry analysis (reference value: 0.3%); assay type: functional
MCF7 [5] = assay: Induction of apoptosis in human MCF7 cells assessed as necrotic cells at 0.75 uM incubated for 48 hrs by Annexin-V/PI staining based flow cytometry analysis (reference value: 0.0%); assay type: functional
[6] = Toxicity in BALB/c mouse xenografted with human MCF7 cells assessed as kidney damage at 10 mg/kg, ip administered once every two days for 3 weeks by H and E staining based microscopic analysis; assay type: organism-based; settings: in vivo, 504 h
MCF7 [7] = assay: Induction of cell cycle arrest in human MCF7 cells assessed as S phase cells at 0.75 uM incubated for 24 hrs by PI/RNaseA staining based flow cytometry analysis (reference value: 22.2 %); assay type: functional
MCF7 [8] = assay: Antitumor activity against human MCF7 cells xenografted in BALB/c nude mouse assessed as reduction in tumor weight at 10 mg/kg, ip administered once every two days for 3 weeks relative to control; assay type: functional; design: scale not given: the % may be the effect or the level left
A549 = assay: Antiproliferative activity against human A549 cells assessed as inhibition of cell growth incubated for 48 hrs by MTT assay; assay type: functional, cell-based; settings: A549, 48 h
MCF7 [9] = assay: Induction of apoptosis in human MCF7 cells assessed as viable cells at 0.75 uM incubated for 48 hrs by Annexin-V/PI staining based flow cytometry analysis (reference value: 99.7%); assay type: functional; settings: read-out: Activity
MCF7 [10] = assay: Induction of apoptosis in human MCF7 cells assessed as viable cells at 1.5 uM incubated for 48 hrs by Annexin-V/PI staining based flow cytometry analysis (reference value: 99.7%); assay type: functional; settings: read-out: Activity
[11] = Toxicity in BALB/c mouse xenografted with human MCF7 cells assessed as spleen damage at 10 mg/kg, ip administered once every two days for 3 weeks by H and E staining based microscopic analysis; assay type: organism-based; settings: in vivo, 504 h
[12] = Toxicity in BALB/c mouse xenografted with human MCF7 cells assessed as kidney damage at 5 mg/kg, ip administered once every two days for 3 weeks by H and E staining based microscopic analysis; assay type: organism-based; settings: in vivo, 504 h
HCT-116 = assay: Antiproliferative activity against human HCT-116 cells assessed as inhibition of cell growth incubated for 48 hrs by MTT assay; assay type: functional, cell-based; settings: HCT-116, 48 h
MCF7 [13] = assay: Induction of cell cycle arrest in human MCF7 cells assessed as G1 phase cells at 1.5 uM incubated for 24 hrs by PI/RNaseA staining based flow cytometry analysis (reference value: 66.08 %); assay type: functional
MCF7 [14] = assay: Induction of apoptosis in human MCF7 cells assessed as viable cells at 3 uM incubated for 48 hrs by Annexin-V/PI staining based flow cytometry analysis (reference value: 99.7%); assay type: functional; settings: read-out: Activity
MCF7 [15] = assay: Induction of cell cycle arrest in human MCF7 cells assessed as G1 phase cells at 0.75 uM incubated for 24 hrs by PI/RNaseA staining based flow cytometry analysis (reference value: 66.08 %); assay type: functional
[16] = Toxicity in BALB/c mouse xenografted with human MCF7 cells assessed as spleen damage at 5 mg/kg, ip administered once every two days for 3 weeks by H and E staining based microscopic analysis; assay type: organism-based; settings: in vivo, 504 h
MCF7 [17] = assay: Induction of apoptosis in human MCF7 cells assessed as upregulation of Bad expression incubated for 24 hrs by Western blot analysis; assay type: functional, cell-based; settings: dose 1-4 µM
MCF7 [18] = assay: Induction of apoptosis in human MCF7 cells assessed as nucleus fragmentation upto 3 uM incubated for 48 hrs by Hoechst-33342 staining based fluorescent microscopic analysis; assay type: functional, cell-based
MCF7 [19] = assay: Induction of cell cycle arrest in human MCF7 cells assessed as G2 phase cells at 0.75 uM incubated for 24 hrs by PI/RNaseA staining based flow cytometry analysis (reference value: 7.67 %); assay type: functional
MCF7 [20] = assay: Antitumor activity against human MCF7 cells xenografted in BALB/c nude mouse assessed as reduction in tumor volume at 5 mg/kg, ip administered once every two days for 3 weeks; assay type: functional, organism-based
MCF7 [21] = assay: Induction of apoptosis in human MCF7 cells assessed as upregulation of Bax expression incubated for 24 hrs by Western blot analysis; assay type: functional, cell-based; settings: dose 1-4 µM
MCF7 [22] = assay: Induction of apoptosis in human MCF7 cells assessed as early apoptotic cells at 0.75 uM incubated for 48 hrs by Annexin-V/PI staining based flow cytometry analysis (reference value: 0.3%); assay type: functional
[23] = Toxicity in BALB/c mouse xenografted with human MCF7 cells assessed as lung damage at 5 mg/kg, ip administered once every two days for 3 weeks by H and E staining based microscopic analysis; assay type: organism-based; settings: in vivo, 504 h
MCF7 [24] = assay: Induction of apoptosis in human MCF7 cells assessed as bright blue appearance of cells upto 3 uM incubated for 48 hrs by Hoechst-33342 staining based fluorescent microscopic analysis; assay type: functional, cell-based
[25] = Toxicity in BALB/c mouse xenografted with human MCF7 cells assessed as liver damage at 5 mg/kg, ip administered once every two days for 3 weeks by H and E staining based microscopic analysis; assay type: organism-based; settings: in vivo, 504 h
MCF7 [26] = assay: Induction of apoptosis in human MCF7 cells assessed as necrotic cells at 3 uM incubated for 48 hrs by Annexin-V/PI staining based flow cytometry analysis (reference value: 0.0%); assay type: functional
MCF7 [27] = assay: Induction of cell cycle arrest in human MCF7 cells assessed as G2 phase cells at 1.5 uM incubated for 24 hrs by PI/RNaseA staining based flow cytometry analysis (reference value: 7.67 %); assay type: functional
[28] = target: ATP-dependent translocase ABCB1 (Homo sapiens, UniProt P08183); assay: Inhibition of P-glycoprotein mediated Rhodamine-123 transport in human MCF7ADR cells assessed as increase in fluorescence index of rhodamine-123 at 1.5 to 3 uM incubated for 24 hrs by flow cytometry analysis; assay type: cell-based; settings: dose 1.5-3 µM
Chain of ATP-dependent translocase ABCB1 (P08183 whole entry): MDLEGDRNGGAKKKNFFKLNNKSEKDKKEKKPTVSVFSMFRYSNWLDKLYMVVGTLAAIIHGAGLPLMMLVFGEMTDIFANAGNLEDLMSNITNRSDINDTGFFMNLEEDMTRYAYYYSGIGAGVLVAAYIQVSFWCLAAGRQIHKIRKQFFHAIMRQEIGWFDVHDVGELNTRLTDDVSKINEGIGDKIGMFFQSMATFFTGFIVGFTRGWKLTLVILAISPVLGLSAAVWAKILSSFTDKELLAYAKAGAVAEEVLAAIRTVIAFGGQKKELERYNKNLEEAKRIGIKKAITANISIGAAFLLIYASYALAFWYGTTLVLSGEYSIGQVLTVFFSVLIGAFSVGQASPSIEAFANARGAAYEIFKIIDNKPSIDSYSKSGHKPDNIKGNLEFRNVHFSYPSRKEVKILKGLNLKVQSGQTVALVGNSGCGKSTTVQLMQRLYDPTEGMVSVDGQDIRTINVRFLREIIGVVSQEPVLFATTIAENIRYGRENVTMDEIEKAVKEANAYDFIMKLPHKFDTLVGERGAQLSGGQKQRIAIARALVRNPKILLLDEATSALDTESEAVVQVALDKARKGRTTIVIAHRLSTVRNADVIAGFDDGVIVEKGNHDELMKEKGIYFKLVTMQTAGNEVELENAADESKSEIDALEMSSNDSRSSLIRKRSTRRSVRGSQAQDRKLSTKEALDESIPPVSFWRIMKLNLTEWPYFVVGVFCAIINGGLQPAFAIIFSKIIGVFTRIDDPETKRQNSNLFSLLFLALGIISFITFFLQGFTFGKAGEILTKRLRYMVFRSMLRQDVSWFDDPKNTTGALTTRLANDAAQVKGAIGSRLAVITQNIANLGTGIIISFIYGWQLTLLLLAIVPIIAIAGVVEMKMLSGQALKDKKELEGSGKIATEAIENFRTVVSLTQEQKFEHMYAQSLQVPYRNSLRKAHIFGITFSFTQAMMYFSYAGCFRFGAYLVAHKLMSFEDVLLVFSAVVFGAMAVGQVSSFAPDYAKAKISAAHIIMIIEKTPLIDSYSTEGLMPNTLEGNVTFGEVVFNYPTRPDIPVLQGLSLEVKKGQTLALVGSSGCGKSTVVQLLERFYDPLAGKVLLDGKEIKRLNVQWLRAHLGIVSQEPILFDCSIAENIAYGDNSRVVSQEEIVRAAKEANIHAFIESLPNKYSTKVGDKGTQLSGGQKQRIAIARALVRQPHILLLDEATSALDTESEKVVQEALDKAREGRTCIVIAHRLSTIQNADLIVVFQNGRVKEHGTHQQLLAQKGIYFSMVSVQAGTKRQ

MCF7 [29] = assay: Induction of apoptosis in human MCF7 cells assessed as total apoptotic cells at 0.75 to 3 uM incubated for 48 hrs by Annexin-V/PI staining based flow cytometry analysis (reference value: 0.3 %); assay type: functional; settings: dose 0.75-3 µM
MCF7 [30] = assay: Induction of apoptosis in human MCF7 cells assessed as late apoptotic cells at 3 uM incubated for 48 hrs by Annexin-V/PI FITC staining based flow cytometry analysis (reference value: 0.0%); assay type: functional
MCF7 [31] = assay: Induction of apoptosis in human MCF7 cells assessed as late apoptotic cells at 1.5 uM incubated for 48 hrs by Annexin-V/PI staining based flow cytometry analysis (reference value: 0.0%); assay type: functional

Compound: COc1cc(-c2cc(C(=O)OCCCCCOc3no[n+]([O-])c3S(=O)(=O)c3ccccc3)c3ccccc3n2)cc(OC)c1OC
- IC50 at 48 h [1]: 26900 nM
- Activity (MCF7 [2]): 14.3%
- Activity (MCF7 [3]): Active
- Activity (MCF7 [4]): 13.2%
- Activity (MCF7 [5]): 3%
- Activity [6]: Non-Toxic
- Activity (MCF7 [7]): 22.08%
- Activity (MCF7 [8]): 66.79%
- IC50 (A549): 2130 nM
- viability at 0.75 µM (MCF7 [9]): 67.1%
- viability at 1.5 µM (MCF7 [10]): 65.4%
- Activity [11]: Non-Toxic
- Activity [12]: Non-Toxic
- IC50 (HCT-116): 2480 nM
- Activity (MCF7 [13]): 61.5%
- viability at 3 µM (MCF7 [14]): 34.4%
- Activity (MCF7 [15]): 65.47%
- Activity [16]: Non-Toxic
- Activity (MCF7 [17]): Dose-Dependent Effect
- Activity (MCF7 [18]): Active
- Activity (MCF7 [19]): 10.62%
- Activity (MCF7 [20]): Active
- Activity (MCF7 [21]): Dose-Dependent Effect
- Activity (MCF7 [22]): 11.9%
- Activity [23]: Non-Toxic
- Activity (MCF7 [24]): Active
- Activity [25]: Non-Toxic
- Activity (MCF7 [26]): 1.2%
- Activity (MCF7 [27]): 19.12%
- inhibition (INH) [28]: Active
- Activity (MCF7 [29]): 64.3%
- Activity (MCF7 [30]): 50%
- Activity (MCF7 [31]): 18.1%
